# Assay results reported in ChEMBL document CHEMBL2046436, “Synthesis and structure-activity relationships of benzophenone-bearing diketopiperazine-type anti-microtubule agents” (Bioorg Med Chem, 2012).
# The source made the active and inactive calls. No cut-off for these calls is given here.
# Experiments:
# [1] = Inhibition of bovine brain microtubule polymerization by spectrophotometric analysis; parameters: species or system Bos taurus
# [2] = test system: A549; experiment: Cytotoxicity against human A549 cells after 48 hrs by WST-8 assay; format: functional, cell-based; details: A549, 48 h
# [3] = test system: HeLa; experiment: Cytotoxicity against human HeLa cells after 48 hrs by WST-8 assay; format: functional, cell-based
# [4] = test system: HeLa; experiment: Antimitotic activity in human HeLa cells assessed as microtubule network damage at interphase at 1 nM after 6 hrs by DAPI staining-based immunofluorescence analysis; format: functional, cell-based
# [5] = test system: HeLa; experiment: Antimitotic activity in human HeLa cells assessed as change in dipolar spindle formation in metaphase at 1 nM after 6 hrs by DAPI staining-based immunofluorescence analysis; format: functional, cell-based
# [6] = test system: HeLa; experiment: Antimitotic activity in human HeLa cells assessed as disruption of interphase microtubule network at 3 nM after 6 hrs by DAPI staining-based immunofluorescence analysis; format: functional, cell-based
# [7] = test system: HeLa; experiment: Antimitotic activity in human HeLa cells assessed as multipolar spindle formation at 3 nM after 6 hrs by DAPI staining-based immunofluorescence analysis; format: functional, cell-based
# [8] = test system: HeLa; experiment: Antimitotic activity in human HeLa cells assessed as disruption of interphase microtubule network at 10 nM after 6 hrs by DAPI staining-based immunofluorescence analysis; format: functional, cell-based
# [9] = test system: HT-29; experiment: Cytotoxicity against human HT-29 cells after 48 hrs by resazurin assay; format: functional, cell-based; details: HT-29, 48 h
# [10] = test system: HT-29; experiment: Cytotoxicity against human HT-29 cells after 48 hrs by Resazurin assay; details: HT-29, 48 h
# [11] = biological target: tubulin (Sus scrofa); experiment: Binding affinity to porcine tubulin by spectrophotometric analysis
smiles,measurement,setting,value
COc1ccc(/C=C\c2cc(OC)c(OC)c(OC)c2)cc1O [COMBRETASTATIN A4],IC50,[1],550 nM
same,IC50,[2],5.3 nM
same,IC50,[3],2.2 nM
same,Activity,[4],inactive
same,Activity,[5],inactive
same,Activity,[6],inactive
same,Activity,[7],Active
same,Activity,[8],Active
same,IC50,[9],12000 nM
COc1ccc(C(=O)c2cccc(/C=c3\[nH]c(=O)/c(=C/c4nc[nH]c4C(C)(C)C)[nH]c3=O)c2)cc1,IC50,[10],3.8 nM
COc1cc(C(=O)c2cccc(/C=c3\[nH]c(=O)/c(=C/c4nc[nH]c4C(C)(C)C)[nH]c3=O)c2)cc(OC)c1OC,IC50,[10],2500 nM
CC(C)(C)c1[nH]cnc1/C=c1\[nH]c(=O)/c(=C/c2cccc(C(=O)c3cccc(F)c3)c2)[nH]c1=O,IC50,[10],0.6 nM
COc1cc2c(c(OC)c1OC)-c1ccc(OC)c(=O)cc1[C@@H](NC(C)=O)CC2 [COLCHICINE],IC50,[2],50.6 nM
same,IC50,[3],20.2 nM
same,IC50,[10],9.3 nM
CC(C)(C)c1[nH]cnc1/C=c1\[nH]c(=O)/c(=C/c2cccc(C(=O)c3ccc(C(F)(F)F)cc3)c2)[nH]c1=O,IC50,[10],147 nM
COc1ccccc1C(=O)c1cccc(/C=c2\[nH]c(=O)/c(=C/c3nc[nH]c3C(C)(C)C)[nH]c2=O)c1,IC50,[10],360 nM
COc1cccc(C(=O)c2cccc(/C=c3\[nH]c(=O)/c(=C/c4nc[nH]c4C(C)(C)C)[nH]c3=O)c2)c1OC,IC50,[10],955 nM
CC(C)(C)c1[nH]cnc1/C=c1\[nH]c(=O)/c(=C/c2cccc(C(=O)c3ccccc3Cl)c2)[nH]c1=O,IC50,[10],6 nM
COc1cccc(C(=O)c2cccc(/C=c3\[nH]c(=O)/c(=C/c4nc[nH]c4C(C)(C)C)[nH]c3=O)c2)c1,IC50,[10],39 nM
CC(C)(C)c1[nH]cnc1/C=c1\[nH]c(=O)/c(=C/c2cccc(C(=O)c3ccc(F)cc3)c2)[nH]c1=O,IC50,[1],900 nM
same,IC50,[2],0.8 nM
same,IC50,[3],1.7 nM
same,Activity,[4],inactive
same,Activity,[5],inactive
same,Activity,[6],Active
same,Activity,[7],Active
same,Activity,[8],Active
same,Kd,[11],72 nM
same,IC50,[10],0.5 nM
CC(C)(C)c1[nH]cnc1/C=c1\[nH]c(=O)/c(=C/c2ccc3c(c2)C(=O)c2ccccc2-3)[nH]c1=O,IC50,[9],2800 nM
CC(C)(C)c1[nH]cnc1/C=c1\[nH]c(=O)/c(=C/c2cccc(C(O)c3ccccc3)c2)[nH]c1=O (centres undefined),IC50,[10],41 nM
CC(C)(C)c1[nH]cnc1/C=c1\[nH]c(=O)/c(=C/c2cccc(C(=O)c3cccc(Cl)c3)c2)[nH]c1=O,IC50,[10],2 nM
CC(C)(C)c1[nH]cnc1/C=c1\[nH]c(=O)/c(=C/c2cccc(C(=O)c3ccccc3F)c2)[nH]c1=O,IC50,[10],3 nM
CC(C)(C)c1[nH]cnc1/C=c1\[nH]c(=O)/c(=C/c2cccc(C(=O)c3ccc(Cl)cc3)c2)[nH]c1=O,IC50,[10],1.1 nM
COc1ccc(C(=O)c2cccc(/C=c3\[nH]c(=O)/c(=C/c4nc[nH]c4C(C)(C)C)[nH]c3=O)c2)c(OC)c1,IC50,[10],1800 nM
CC(C)(C)c1[nH]cnc1/C=c1\[nH]c(=O)/c(=C/c2cccc(C(=O)c3ccc(Br)cc3)c2)[nH]c1=O,IC50,[10],4 nM
COc1ccc(C(=O)c2cccc(/C=c3\[nH]c(=O)/c(=C/c4nc[nH]c4C(C)(C)C)[nH]c3=O)c2)cc1OC,IC50,[10],7300 nM
CC(C)(C)c1[nH]cnc1/C=c1\[nH]c(=O)/c(=C/c2ccc(C(=O)c3ccccc3)cc2)[nH]c1=O,IC50,[10],1200 nM
